Experiment [1] deals with total micro-organism. As to the kind of experiment: Total microbial (plate) count of spent brewer's / wet distiller's grains stored at ambient temperature. Type of experiment: cell-based. As to conditions: dose 15% w/w; distiller's grains not de-watered, Examples 16-18.
Description: Samples of spent brewer's grains were drawn from the discharge line of a brewery in South Africa. The samples, packed in dry ice in a cold box, were transported over a distance of approximately 40 kilometres to a laboratory. At the laboratory, the samples were thoroughly mixed and initially split into a first portion (Portion 1) and a second portion (Portion 2). The second portion was about twice the size of the first. Portion 1 was left untreated. Material produced from Portion 1 and Portion 2 is designated below using the code “AR” (as received).
Portion 2 was placed on a clean, standard, laboratory screen deck with 1.4 mm apertures supported from below. As much water as possible was manually squeezed out with a clean flat plastic disc and the sample was then manually remixed after the squeezing. The squeezed material was then split into a third portion (Portion 3) and a fourth portion (Portion 4) of approximately the same size. Material produced from Portion 3 and Portion 4 is designated below using the code “SO” (squeezed).
Portion 4 was added to a high speed kitchen food-shredder and shredded for about two minutes. The shredded material was then returned to the 1.4 mm aperture screen and squeezed again, as described above, and manually remixed again after the second squeezing to produce a shredded and squeezed portion (Portion 5). Material produced from Portion 5 is designated below using the code “SH” (shredded).
Samples of Portion 1 (“AR”), Portion 3 (“SO”) and Portion 5 (“SH”) were then delivered to a microbiological testing facility about 15 kilometres from the treatment laboratory. Each was tested for initial total microbial, yeast and mould counts, respectively.
Separate untreated samples were similarly stored under insect-proof screens at ambient temperature for seven days (as shown in Tables 1 and 2). During the trial period the ambient temperature ranged from 11 to 33 degrees C.
After exposure to the environment for seven days, all of the samples were tested at a South African National Accreditation System (SANAS) approved microbiological testing facility. Each was tested for total micro-organism, yeast and mould counts to determine the affect of the various treatments.
Samples of spent brewer's grains were drawn from the discharge line of a brewery in South Africa.
At the laboratory, the samples were thoroughly mixed and initially split into a first portion (Portion 1) and a second portion (Portion 2). Portion 1 was left untreated. A sample of Portion 1, was delivered immediately to a microbiological testing facility about 15 kilometres away from the treatment laboratory and was tested for initial total microbial, yeast and mould counts, respectively.
Samples from Portion 2 were subjected to treatment with varying amounts of a powdered, commercially-available calcium oxide containing approximately 94% calcium oxide (CaO) as shown in Table 32. The treatments varied from 2.5 to 10% (w/w) calcium oxide addition. The samples were stored in batches (according to the calcium oxide treatment) under insect-proof screens at ambient temperature for fifty six days. […] During the trial period the ambient temperature ranged from 10 to 30 degrees C. As this period was the southern hemisphere spring/early summer, the humidity as well as ambient temperatures varied widely.
Samples from each treatment were drawn every seven days. No further calcium oxide treatment or agitation took place after the initial mix. In each case the entire sample was isolated and delivered to the microbiological testing facility.
(§1) In this trial the same source of wet distiller's grains (again with now partial water removal prior to treatment) was treated.
as §1

The test system of experiment [2] is total micro-organism. The description is as above. Type of experiment: cell-based. Conditions: dose 10% w/w; distiller's grains not de-watered, Examples 16-18.

`[Ca+2].[O-]CC(O)CO.[O-]CC(O)CO` [Ca-DGO (g)]: in the experiment on total micro-organism [1], the “preservation time with total microbial counts <100 cfu/g” value was “≧9 weeks” and the “preservation time with total microbial counts <1000 cfu/g” value is listed as “≧9 weeks”. In the experiment with total micro-organism [2], the “preservation time with total microbial counts <100 cfu/g” value is recorded as “≧4 weeks” and the “preservation time with total microbial counts <1000 cfu/g” value is listed as “≧4 weeks”.
On to `[Ca+2].[O-]CC(O)CO.[O-]CC(O)CO` [Ca-DGO (p)], for which, in the experiment with total micro-organism [1], the “preservation time with total microbial counts <10 cfu/g” value is listed as “≧9 weeks”, the “preservation time with total microbial counts <100 cfu/g” value is given as “≧9 weeks” and the “preservation time with total microbial counts <1000 cfu/g” value is “≧9 weeks”. Also, in the experiment on total micro-organism [2], the “preservation time with total microbial counts <100 cfu/g” value is on record as “≧2 weeks” and the “preservation time with total microbial counts <1000 cfu/g” value is given as “≧3 weeks”.

The record behind these values is US20120009280A1, “METHOD OF REDUCING THE RATE OF DEGRADATION OF A BIOLOGICAL MATERIAL” (Bio-Energy Ingredients Limited, priority 2009, published 2012).
